Test results taken from ChEMBL document CHEMBL3217502, “Synthesis of dual AChE/5-HT4 receptor multi-target directed ligands” (Medchemcomm, 2012).

Legend:
[1] = target: 5-hydroxytryptamine receptor 4 (Cavia porcellus, UniProt O70528); assay: Displacement of [3H]-GR113808 from guinea pig 5HT4 receptor by Grossman's method
[2] = target: Acetylcholinesterase (Electrophorus electricus, UniProt O42275); assay: Inhibition of electric eel AChE using acetylthiocholine iodide as substrate preincubated for 5 mins before substrate addition measured for 10 mins by Ellman's method
[3] = target: 5-hydroxytryptamine receptor 4 (Homo sapiens) (UniProt Q13639); assay: Displacement of [3H]-GR113808 from human 5HT4E receptor at 10^-8 M after 30 mins by liquid scintillation counting
[4] = target: 5-hydroxytryptamine receptor 4 (Homo sapiens) (UniProt Q13639); assay: Displacement of [3H]-GR113808 from human 5HT4E receptor at 10^-6 M after 30 mins by liquid scintillation counting

Sequence of Acetylcholinesterase (O42275 whole entry): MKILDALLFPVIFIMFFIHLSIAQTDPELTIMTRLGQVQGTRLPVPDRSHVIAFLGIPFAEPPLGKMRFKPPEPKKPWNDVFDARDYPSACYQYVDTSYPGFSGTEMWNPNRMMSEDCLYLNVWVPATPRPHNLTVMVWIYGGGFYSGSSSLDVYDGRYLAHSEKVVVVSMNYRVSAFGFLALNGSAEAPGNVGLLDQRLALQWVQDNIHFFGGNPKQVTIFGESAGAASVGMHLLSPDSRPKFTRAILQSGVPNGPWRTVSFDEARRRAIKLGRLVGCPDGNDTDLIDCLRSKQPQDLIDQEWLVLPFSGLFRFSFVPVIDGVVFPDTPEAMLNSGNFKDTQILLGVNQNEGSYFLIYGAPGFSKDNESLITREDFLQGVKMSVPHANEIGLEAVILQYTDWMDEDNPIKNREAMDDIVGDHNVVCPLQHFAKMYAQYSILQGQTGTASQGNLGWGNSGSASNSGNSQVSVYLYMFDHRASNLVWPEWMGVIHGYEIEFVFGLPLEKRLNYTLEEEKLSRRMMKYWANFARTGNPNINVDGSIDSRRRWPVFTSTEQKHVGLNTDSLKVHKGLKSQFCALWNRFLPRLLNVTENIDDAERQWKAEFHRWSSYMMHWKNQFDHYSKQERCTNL
Sequence of 5-hydroxytryptamine receptor 4 (O70528 whole entry): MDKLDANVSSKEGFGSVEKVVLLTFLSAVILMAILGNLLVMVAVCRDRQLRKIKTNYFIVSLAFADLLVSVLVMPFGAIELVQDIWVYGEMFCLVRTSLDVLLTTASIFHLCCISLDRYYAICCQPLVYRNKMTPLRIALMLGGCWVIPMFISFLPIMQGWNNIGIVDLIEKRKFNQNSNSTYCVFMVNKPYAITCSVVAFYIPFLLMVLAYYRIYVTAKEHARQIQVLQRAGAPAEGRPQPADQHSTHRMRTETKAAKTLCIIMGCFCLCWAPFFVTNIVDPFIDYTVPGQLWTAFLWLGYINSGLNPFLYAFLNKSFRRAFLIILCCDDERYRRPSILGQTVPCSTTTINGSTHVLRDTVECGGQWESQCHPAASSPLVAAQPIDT
Sequence of 5-hydroxytryptamine receptor 4 (Homo sapiens) (Q13639 whole entry): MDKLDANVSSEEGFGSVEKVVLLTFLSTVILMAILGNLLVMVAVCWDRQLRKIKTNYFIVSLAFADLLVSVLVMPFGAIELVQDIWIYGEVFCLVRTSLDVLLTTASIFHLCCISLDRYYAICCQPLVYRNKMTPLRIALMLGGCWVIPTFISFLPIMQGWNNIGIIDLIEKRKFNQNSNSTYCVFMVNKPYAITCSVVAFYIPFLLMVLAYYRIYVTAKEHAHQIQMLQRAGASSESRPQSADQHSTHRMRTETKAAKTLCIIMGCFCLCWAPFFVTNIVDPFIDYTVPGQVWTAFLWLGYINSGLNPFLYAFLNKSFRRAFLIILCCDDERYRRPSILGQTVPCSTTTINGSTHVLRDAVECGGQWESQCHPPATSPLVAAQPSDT

| SMILES | Ki [1] [nM] | IC50 [2] [nM] | inhibition [3] [%] | inhibition [4] [%] |
| --- | --- | --- | --- | --- |
| c1cc2c(OCC3CCN(CC4CCCCC4)CC3)nc3ccsc3n2c1 | 79.9 | 206 | 22 | 99 |
| c1ccc(CN2CCC(COc3nc4ccsc4n4cccc34)CC2)cc1 | 52.9 | 551 | 30 | 96 |
| c1ccc(CCCN2CCC(COc3nc4ccsc4n4cccc34)CC2)cc1 | 75.8 | – | – | – |
| Cc1csc2nc(OCC3CCN(Cc4ccccc4)CC3)c3cccn3c12 | 22 | 165 | 38 | 98 |
| c1cc2c(OCC3CCN(CC4CCC4)CC3)nc3ccsc3n2c1 | 25.9 | – | – | – |
| c1cc2c(OCC3CCN(CC4CCCC4)CC3)nc3ccsc3n2c1 | 44.8 | 597 | 39 | 100 |
| CCCN1CCC(COc2nc3scc(C)c3n3cccc23)CC1 | 6 | 5000 | – | – |
| c1ccc(CCN2CCC(COc3nc4ccsc4n4cccc34)CC2)cc1 | 49.8 | – | – | – |
| c1cc2c(OCC3CCN(Cc4ccncc4)CC3)nc3ccsc3n2c1 | 174 | – | – | – |
| Cc1csc2nc(OCC3CCN(CC4CCCC4)CC3)c3cccn3c12 | 21.3 | 553 | 78 | 100 |
| Fc1ccc(CN2CCC(COc3nc4ccsc4n4cccc34)CC2)cc1 | 99 | – | – | – |
| c1ccc(CN2CCC(CCOc3nc4ccsc4n4cccc34)CC2)cc1 | – | 561 | – | – |
| Cc1csc2nc(OCC3CCN(CC4CCCCC4)CC3)c3cccn3c12 | 4.2 | 95.8 | 60 | 99 |
| c1cc2c(OCC3CCN(CC4CC4)CC3)nc3ccsc3n2c1 | 53 | – | – | – |
| COc1ccc(CN2CCC(COc3nc4ccsc4n4cccc34)CC2)cc1 | 216 | – | – | – |
